Results as given in PMC7029851, “Antibacterial activity of novel dual bacterial DNA type II topoisomerase inhibitors” (PLoS ONE, 2020).
Read-outs that look alike come from different tables or passages of the source.

How the values were obtained:
E. coli DNA gyrase = biological target: T1, E. coli DNA gyrase (Escherichia coli, UniProt P0AES4); assay: E. coli DNA gyrase supercoiling gel assay; type: biochemical
T1 construct: purchased Inspiralis (Norwich, UK)
Protocol: (§1) S. aureus and E. coli DNA gyrase supercoiling and topo IV decatenation assay kits, as well as human topoisomerase II decatenation assay kits, were provided by Inspiralis (Norwich, UK). Assays were performed according to the manufacturer’s instructions. The compounds were serially diluted (1:3 dilutions starting from a 300 μM final concentration) and assayed in a reaction mixture to obtain concentration-response curves in two different replicate experiments. The final concentration of DMSO in the assays was 1% (v/v). The reactions were terminated by the addition of 30 μl chloroform/isoamyl alcohol (26:1) and 30 μl Stop Dye (40% sucrose, 100 mM Tris HCl pH 7.5, 1 mM EDTA, 0.5 μg/ml bromophenol blue), after which the samples were loaded onto a 1.0% TAE ([…]) gel that was then run at 80 V for 2 hours. DNA bands were visualized by ethidium bromide staining the gel for 10 minutes, which was then destained for 10 minutes in water and analysed using gel documentation equipment (Syngene, Cambridge, UK). The DNA in each band was quantitated using Syngene Gene Tools software. Raw gel data (fluorescent band volumes) were converted by the software to percentages of the control (the fully supercoiled or decatenated DNA band). […] The global curve fit non-linear regression tool was used to calculate the IC50 values. The results are expressed as the average values obtained after calculating the IC50 from each replicate run.

E. coli Topoisomerase IV = biological target: T2, E. coli Topoisomerase IV (Escherichia coli, UniProt P0AFI2); assay: E. coli topoisomerase IV decatenation gel assay; type: biochemical
T2 construct: purchased Inspiralis (Norwich, UK)
Protocol: as §1

S. aureus DNA gyrase = biological target: T3, S. aureus DNA gyrase (Staphylococcus aureus, UniProt P20831); assay: S. aureus DNA gyrase supercoiling gel assay; type: biochemical
T3 construct: purchased Inspiralis (Norwich, UK)
T3 sequence (P20831 whole entry): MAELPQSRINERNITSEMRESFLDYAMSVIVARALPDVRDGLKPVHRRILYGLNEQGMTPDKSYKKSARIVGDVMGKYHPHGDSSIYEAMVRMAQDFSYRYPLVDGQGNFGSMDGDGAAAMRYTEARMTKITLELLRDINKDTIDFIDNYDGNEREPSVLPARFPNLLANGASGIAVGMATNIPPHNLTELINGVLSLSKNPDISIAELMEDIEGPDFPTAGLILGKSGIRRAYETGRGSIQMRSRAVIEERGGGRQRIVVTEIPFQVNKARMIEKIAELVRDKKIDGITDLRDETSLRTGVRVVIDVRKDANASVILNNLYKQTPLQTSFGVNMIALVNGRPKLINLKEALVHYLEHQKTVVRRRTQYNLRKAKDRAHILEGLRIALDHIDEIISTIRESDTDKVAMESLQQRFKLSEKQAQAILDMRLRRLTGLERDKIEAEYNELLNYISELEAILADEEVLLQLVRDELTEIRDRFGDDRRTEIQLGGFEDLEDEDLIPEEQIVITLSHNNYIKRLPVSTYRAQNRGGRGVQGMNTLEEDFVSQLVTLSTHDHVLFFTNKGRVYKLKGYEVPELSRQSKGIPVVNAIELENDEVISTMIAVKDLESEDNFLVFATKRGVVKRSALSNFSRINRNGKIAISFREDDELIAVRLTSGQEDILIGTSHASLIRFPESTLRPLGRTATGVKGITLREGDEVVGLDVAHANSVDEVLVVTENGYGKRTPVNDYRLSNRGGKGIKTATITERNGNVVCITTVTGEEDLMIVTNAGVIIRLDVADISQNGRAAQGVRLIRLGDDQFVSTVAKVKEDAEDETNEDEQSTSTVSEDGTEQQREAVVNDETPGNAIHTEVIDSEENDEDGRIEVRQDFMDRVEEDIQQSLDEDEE
T3 sequence (P0A0K8 whole entry partner): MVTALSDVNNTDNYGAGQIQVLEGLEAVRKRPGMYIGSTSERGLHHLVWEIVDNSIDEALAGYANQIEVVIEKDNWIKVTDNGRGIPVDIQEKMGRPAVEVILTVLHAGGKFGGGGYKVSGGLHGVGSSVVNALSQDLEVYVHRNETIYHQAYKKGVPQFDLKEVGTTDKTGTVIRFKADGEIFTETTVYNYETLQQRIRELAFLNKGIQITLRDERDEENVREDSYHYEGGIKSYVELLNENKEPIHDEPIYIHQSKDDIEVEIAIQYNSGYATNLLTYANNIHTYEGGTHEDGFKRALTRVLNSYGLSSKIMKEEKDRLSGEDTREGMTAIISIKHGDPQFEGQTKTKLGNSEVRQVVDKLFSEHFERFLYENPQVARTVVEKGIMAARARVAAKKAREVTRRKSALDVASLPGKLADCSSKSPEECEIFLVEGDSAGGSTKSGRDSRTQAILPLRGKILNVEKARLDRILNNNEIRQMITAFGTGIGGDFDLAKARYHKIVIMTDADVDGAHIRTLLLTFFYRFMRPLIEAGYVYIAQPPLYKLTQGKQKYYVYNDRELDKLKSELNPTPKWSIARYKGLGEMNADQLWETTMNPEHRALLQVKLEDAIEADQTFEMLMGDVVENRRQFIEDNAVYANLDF
Protocol: as §1

[1] = biological target: T4, S. aureus Topoisomerase IV (Staphylococcus aureus, UniProt P0C1U9); assay: S. aureus topoisomerase IV decatenation gel assay; type: biochemical
T4 construct: purchased Inspiralis (Norwich, UK)
Protocol: as §1

Human Topoisomerase II = biological target: T5, Human Topoisomerase II (Homo sapiens, UniProt P11388); assay: Human topoisomerase II decatenation gel assay; type: biochemical
T5 construct: purchased Inspiralis (Norwich, UK)
T5 sequence (P11388 whole entry): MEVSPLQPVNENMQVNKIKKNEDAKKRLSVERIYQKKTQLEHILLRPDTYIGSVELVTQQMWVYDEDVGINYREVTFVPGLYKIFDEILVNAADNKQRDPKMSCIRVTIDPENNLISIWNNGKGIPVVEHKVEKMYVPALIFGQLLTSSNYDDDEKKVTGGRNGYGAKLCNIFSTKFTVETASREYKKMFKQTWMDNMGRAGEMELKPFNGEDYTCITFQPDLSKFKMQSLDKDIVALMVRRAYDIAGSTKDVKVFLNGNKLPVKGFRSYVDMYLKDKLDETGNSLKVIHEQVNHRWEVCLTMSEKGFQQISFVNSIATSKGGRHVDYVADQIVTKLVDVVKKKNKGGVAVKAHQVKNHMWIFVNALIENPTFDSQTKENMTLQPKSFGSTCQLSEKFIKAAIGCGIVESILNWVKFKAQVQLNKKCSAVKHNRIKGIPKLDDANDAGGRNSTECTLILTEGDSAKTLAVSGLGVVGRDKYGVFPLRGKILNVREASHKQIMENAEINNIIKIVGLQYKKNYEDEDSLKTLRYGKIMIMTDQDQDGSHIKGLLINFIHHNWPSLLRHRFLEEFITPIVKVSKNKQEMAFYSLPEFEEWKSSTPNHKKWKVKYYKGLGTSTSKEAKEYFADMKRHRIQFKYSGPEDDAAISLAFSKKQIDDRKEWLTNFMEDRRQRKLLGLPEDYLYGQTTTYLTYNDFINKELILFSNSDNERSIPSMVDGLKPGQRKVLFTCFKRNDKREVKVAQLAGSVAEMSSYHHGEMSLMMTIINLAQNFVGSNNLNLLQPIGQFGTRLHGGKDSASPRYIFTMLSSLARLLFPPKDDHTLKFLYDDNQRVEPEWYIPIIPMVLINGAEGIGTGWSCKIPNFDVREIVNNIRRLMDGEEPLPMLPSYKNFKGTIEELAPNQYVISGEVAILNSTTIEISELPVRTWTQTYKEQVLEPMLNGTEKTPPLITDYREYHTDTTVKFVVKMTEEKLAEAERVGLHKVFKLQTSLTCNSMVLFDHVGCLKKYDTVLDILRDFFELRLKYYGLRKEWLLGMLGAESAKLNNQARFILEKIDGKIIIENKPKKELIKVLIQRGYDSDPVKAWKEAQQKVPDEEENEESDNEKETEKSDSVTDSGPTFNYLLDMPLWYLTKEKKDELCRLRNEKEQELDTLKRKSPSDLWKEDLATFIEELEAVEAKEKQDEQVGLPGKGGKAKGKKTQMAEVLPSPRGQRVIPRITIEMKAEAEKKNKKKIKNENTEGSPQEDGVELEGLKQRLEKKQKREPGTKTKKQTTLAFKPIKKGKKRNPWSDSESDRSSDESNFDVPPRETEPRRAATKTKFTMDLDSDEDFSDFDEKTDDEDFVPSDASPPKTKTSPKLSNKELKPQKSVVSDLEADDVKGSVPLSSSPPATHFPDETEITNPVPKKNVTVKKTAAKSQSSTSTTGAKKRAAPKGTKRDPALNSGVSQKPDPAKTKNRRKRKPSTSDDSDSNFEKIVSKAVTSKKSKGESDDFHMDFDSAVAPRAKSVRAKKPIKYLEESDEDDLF
Protocol: as §1

S. aureus ATCC 29213 = assay: MIC, broth microdilution; type: cell-based, Staphylococcus aureus; conditions: Staphylococcus aureus, ATCC29213, S. aureus ATCC 29213, ciprofloxacin-susceptible
Protocol: (§2) MICs were determined by the broth microdilution method (the agar dilution method was used only for N. gonorrhoeae) according to CLSI guidelines.

E. coli ATCC 25922 = assay: MIC, broth microdilution; type: cell-based; conditions: Escherichia coli, ATCC25922; E. coli ATCC 25922, ciprofloxacin-susceptible
Protocol: as §2

E. faecalis ATCC 29212 = assay: MIC, broth microdilution; type: cell-based; conditions: Enterococcus faecalis, ATCC29212; E. faecalis ATCC 29212, ciprofloxacin-susceptible
Protocol: as §2

H. influenzae ATCC 49766 = assay: MIC, broth microdilution; type: cell-based; conditions: Haemophilus influenzae, ATCC49766; H. influenzae ATCC 49766, ciprofloxacin-susceptible
Protocol: as §2

[2] = test system: K. pneumoniae ATCC 700603; assay: MIC, broth microdilution; type: cell-based; conditions: Klebsiella pneumoniae, ATCC700603; K. pneumoniae ATCC 700603, ciprofloxacin-susceptible
Protocol: as §2

P. aeruginosa ATCC 27853 = assay: MIC, broth microdilution; type: cell-based; conditions: Pseudomonas aeruginosa, ATCC27853; P. aeruginosa ATCC 27853, ciprofloxacin-susceptible
Protocol: as §2

S. aureus BAA-1720 = assay: MIC, broth microdilution; type: cell-based; conditions: Staphylococcus aureus, BAA1720; S. aureus BAA-1720, ciprofloxacin-resistant
Protocol: as §2

S. pneumoniae ATCC 49619 = assay: MIC, broth microdilution; type: cell-based; conditions: Streptococcus pneumoniae, ATCC49619; S. pneumoniae ATCC 49619, ciprofloxacin-susceptible
Protocol: as §2

S. pyogenes APV00083 = assay: MIC, broth microdilution; type: cell-based; conditions: Streptococcus pyogenes; S. pyogenes APV00083, ciprofloxacin-susceptible
Protocol: as §2

[3] = test system: N. gonorrhoeae ATCC 19424; assay: MIC, agar dilution; type: cell-based; conditions: Neisseria gonorrhoeae, ATCC19424; N. gonorrhoeae ATCC 19424, ciprofloxacin-susceptible
Protocol: as §2

[4] = test system: N. gonorrhoeae ATCC 49226; assay: MIC, agar dilution; type: cell-based; conditions: Neisseria gonorrhoeae, ATCC49226; N. gonorrhoeae ATCC 49226, ciprofloxacin-susceptible
Protocol: as §2

N. gonorrhoeae WHO K = assay: MIC, agar dilution; type: cell-based; conditions: Neisseria gonorrhoeae, ciprofloxacin-resistant
Protocol: as §2

N. gonorrhoeae WHO L = assay: MIC, agar dilution; type: cell-based; conditions: Neisseria gonorrhoeae, ciprofloxacin-resistant
Protocol: as §2

N. gonorrhoeae WHO N = assay: MIC, agar dilution; type: cell-based; conditions: Neisseria gonorrhoeae, ciprofloxacin-resistant
Protocol: as §2

E. coli TolC- mutant = assay: microbe, parasite or virus in culture; type: cell-based; conditions: Escherichia coli
Protocol: (§3) The bacterial reference strains used in this study were purchased from ATCC (American Type Culture Collection) via LGC Standards (Middlesex, UK). […] Clinical MDR isolates were provided by Aptuit, the IHMA Europa Sàrl repository (Epalinges, Switzerland) and the Statens Serum Institute (Copenhagen, Denmark).
as §2

[5] = test system: E. faecalis clinical isolates (n = 12) vanA (6)/vanB (6); assay: MIC, multidrug-resistant clinical isolates; type: cell-based; conditions: Enterococcus faecalis
Protocol: as §3, §2
(§4) The results obtained using clinical isolates are reported as MIC50 and MIC90 values.

[6] = test system: E. faecium clinical isolates (n = 12) vanA (6)/vanB (6); assay: MIC, multidrug-resistant clinical isolates; type: cell-based; conditions: Enterococcus faecium
Protocol: as §3, §2, §4

[7] = test system: N. gonorrhoeae clinical isolates (n = 38); assay: microbe, parasite or virus in culture; type: cell-based, Neisseria gonorrhoeae
Protocol: as §3, §2, §4

T1 sequence (P0AES4 whole entry): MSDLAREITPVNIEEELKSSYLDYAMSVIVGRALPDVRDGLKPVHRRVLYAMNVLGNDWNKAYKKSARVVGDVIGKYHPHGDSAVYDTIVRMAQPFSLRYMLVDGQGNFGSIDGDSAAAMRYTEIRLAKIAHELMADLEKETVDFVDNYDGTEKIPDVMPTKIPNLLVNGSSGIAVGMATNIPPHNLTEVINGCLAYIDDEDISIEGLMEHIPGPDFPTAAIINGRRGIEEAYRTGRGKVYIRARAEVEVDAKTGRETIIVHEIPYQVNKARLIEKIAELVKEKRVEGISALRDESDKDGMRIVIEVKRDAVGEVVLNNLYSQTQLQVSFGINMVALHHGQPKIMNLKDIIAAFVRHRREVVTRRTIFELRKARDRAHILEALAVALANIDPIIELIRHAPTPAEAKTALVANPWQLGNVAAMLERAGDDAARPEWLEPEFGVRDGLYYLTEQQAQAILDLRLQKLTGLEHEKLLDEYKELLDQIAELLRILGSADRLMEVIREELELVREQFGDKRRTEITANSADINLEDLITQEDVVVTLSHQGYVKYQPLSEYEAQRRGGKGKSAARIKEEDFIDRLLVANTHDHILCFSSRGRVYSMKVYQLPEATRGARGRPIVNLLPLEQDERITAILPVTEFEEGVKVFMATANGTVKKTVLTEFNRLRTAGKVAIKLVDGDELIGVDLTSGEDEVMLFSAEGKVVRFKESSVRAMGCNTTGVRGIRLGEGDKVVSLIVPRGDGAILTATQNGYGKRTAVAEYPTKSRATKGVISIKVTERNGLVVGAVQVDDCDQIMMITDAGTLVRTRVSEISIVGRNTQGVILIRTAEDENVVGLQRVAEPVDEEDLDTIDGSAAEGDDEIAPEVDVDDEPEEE

Cl.O=c1oc2ccc(F)cc2c2[nH]c(CN[C@H]3CC[C@H](n4c(=O)ccc5ncc(F)cc54)CC3)cc12 [Compound 3, 8-fluoro-2-({[trans-4-(7-fluoro-2-oxo-1,5-naphthyridin-1(2H)-yl)cyclohexyl]amino}methyl)[1]benzopyrano[4,3-b]pyrrol-4(1H)-one hydrochloride]
IC50 (E. coli DNA gyrase; IC50 E. coli Gyrase Supercoiling (average), average of two replicate experiments): < 100 nM | IC50 (E. coli DNA gyrase; IC50 E. coli gyrase Supercoiling, Assay 1, replicate Assay 1): < 100 nM | IC50 (E. coli DNA gyrase; IC50 E. coli gyrase Supercoiling, Assay 2, replicate Assay 2): < 100 nM | IC50 (E. coli DNA gyrase; read-out: IC50 E. coli Gyrase Supercoiling (average), average of two replicate experiments): < 100 nM | IC50 (E. coli Topoisomerase IV; IC50 E. coli Topoisomerase IV decatenation (average), average of two replicate experiments): < 100 nM | IC50 (E. coli Topoisomerase IV; IC50 E. coli Topoisomerase IV decatenation, Assay 1, replicate Assay 1): < 100 nM | IC50 (E. coli Topoisomerase IV; IC50 E. coli Topoisomerase IV decatenation, Assay 2, replicate Assay 2): < 100 nM | IC50 (E. coli Topoisomerase IV; read-out: IC50 E. coli Topoisomerase IV decatenation (average), average of two replicate experiments): < 100 nM | IC50 (S. aureus DNA gyrase; average of two replicate experiments, read-out: IC50 S. aureus Gyrase Supercoiling (average)): < 100 nM | IC50 (S. aureus DNA gyrase; replicate Assay 1, read-out: IC50 S.aureus gyrase Supercoiling, Assay 1): < 100 nM | IC50 (S. aureus DNA gyrase; replicate Assay 2, read-out: IC50 S.aureus gyrase Supercoiling, Assay 2): < 100 nM | IC50 ([1]; average of two replicate experiments, read-out: IC50 S. aureus Topoisomerase IV decatenation (average)): < 100 nM | IC50 ([1]; replicate Assay 1, read-out: IC50 S. aureus Topoisomerase IV decatenation, Assay 1): < 100 nM | IC50 ([1]; replicate Assay 2, read-out: IC50 S. aureus Topoisomerase IV decatenation, Assay 2): < 100 nM | IC50 (Human Topoisomerase II; average of two replicate experiments, read-out: IC50 Human Topoisomerase II decatenation (average)): 56000 nM | IC50 (Human Topoisomerase II; replicate Assay 1, read-out: IC50 Human Topoisomerase II (TopoII) decatenation, Assay 1): 46000 nM | IC50 (Human Topoisomerase II; replicate Assay 2, read-out: IC50 Human Topoisomerase II (TopoII) decatenation, Assay 2): 66000 nM | MIC (S. aureus ATCC 29213): 0.25 µg/mL | MIC (E. coli ATCC 25922): 0.5 µg/mL | MIC (E. faecalis ATCC 29212): 0.12 µg/mL | MIC (H. influenzae ATCC 49766): 0.12 µg/mL | MIC [2]: 2 µg/mL | MIC (P. aeruginosa ATCC 27853): 4 µg/mL | MIC (S. aureus BAA-1720): 0.12 µg/mL | MIC (S. pneumoniae ATCC 49619): 0.25 µg/mL | MIC (S. pyogenes APV00083): 0.12 µg/mL | MIC [3]: ≤ 0.06 µg/mL | MIC [4]: 0.016 µg/mL | MIC (N. gonorrhoeae WHO K): 0.016 µg/mL | MIC (N. gonorrhoeae WHO L): 0.016 µg/mL | MIC (N. gonorrhoeae WHO N): 0.016 µg/mL | MIC (E. coli TolC- mutant): ≤ 0.016 µg/mL | MIC50 [5]: 0.12 µg/mL | MIC90 [5]: 0.12 µg/mL | MIC ([5]; read-out: MIC range): 0.06 to 0.12 µg/mL | MIC50 [6]: 0.12 µg/mL | MIC90 [6]: 0.25 µg/mL | MIC ([6]; read-out: MIC range): 0.06 to 2 µg/mL | MIC range [7]: 0.004 to 0.03 µg/mL | MIC50 ([7]; Neisseria gonorrhoeae): 0.016 µg/mL | MIC90 ([7]; Neisseria gonorrhoeae): 0.03 µg/mL
